In PubChem BioAssay AID1648 (Sanford-Burnham Center for Chemical Genomics, 2009):
The source made the active and inactive calls. The rule behind the calls is not given here.

Molecular target: Serine/threonine-protein kinase mTOR (Homo sapiens) (UniProt P42345)
Experiment: binders of mTOR FRB domain, biophysical, NMR (AID 1648)
Conditions: NMR binding to FRB domain, chemical shift

Sequence of Serine/threonine-protein kinase mTOR (Homo sapiens) (P42345 2015-2114): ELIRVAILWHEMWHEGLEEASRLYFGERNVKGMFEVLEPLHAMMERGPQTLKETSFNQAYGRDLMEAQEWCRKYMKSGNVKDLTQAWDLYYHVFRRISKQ

Row | SMILES | Kd
1 | O=C(O)Cn1cc(C(=O)c2cccs2)c2ccccc21 | > 4 mM (inactive)
2 | COC(=O)c1c[nH]c2ccccc12 | > 4 mM (inactive)
3 | CC1=CC(=O)CC(C)(C)C1(O)/C=C/C(C)=C\C(=O)O (stereo unspecified) | > 4 mM (inactive)
4 | CCOC(=O)CSc1nnc(C)c(=O)[nH]1 | > 4 mM (inactive)
5 | Cn1c2ccccc2n2c(=S)[nH]nc12 | > 4 mM (inactive)
6 | CCOc1ccc(-c2c(=O)n(O)c3ccccc3[n+]2[O-])cc1 | > 4 mM (inactive)
7 | Cc1occc1C(=O)Nc1nnc(C2CCCCC2)s1 | > 4 mM (inactive)
8 | O=C(Nc1ccc(O)cc1)N1CCOCC1 | > 4 mM (inactive)
9 | O=C(Nc1ccncc1)c1c(F)cccc1F | > 4 mM (inactive)
10 | CN=C1SC(CC(=O)Nc2ccc(O)cc2)C(=O)N1C (stereo unspecified) | > 4 mM (inactive)
11 | COC(=O)c1c(SC)nc(-c2ccccc2)[nH]c1=O | > 4 mM (inactive)
12 | C=C[C@@]1(C)CC(=O)[C@@]2(O)[C@](C)(O1)[C@@H](OC(C)=O)[C@@H](O)C1C(C)(C)CC[C@H](O)[C@@]12C (stereo partly specified) | > 4 mM (inactive)
13 | Oc1ccc(C(=S)N2CCOCC2)cc1 | > 4 mM (inactive)
14 | COc1ccc2cnn(-c3ccccc3)c(=O)c2c1OC | > 4 mM (inactive)
15 | Cc1ccc(C(=O)Nc2ccncc2)o1 | > 4 mM (inactive)
16 | COc1c2ccoc2nc2c(OC)c(OCC(O)C(C)(C)O)ccc12 (stereo unspecified) | > 4 mM (inactive)
17 | O=C(Nc1ccccc1C(F)(F)F)N1CCCCCC1 | > 4 mM (inactive)
18 | Nc1ccc2nsnc2c1 | > 4 mM (inactive)
19 | CC(=O)c1cccc(NC(=O)N2CCc3ccccc3C2)c1 | > 4 mM (inactive)
20 | Cc1n[nH]c(C)c1CC(=O)O | > 4 mM (inactive)
21 | O=C1NC(=O)/C(=C\c2ccco2)S1 | > 4 mM (inactive)

Row | SMILES | Kd
22 | O=S(=O)(Cc1ccccc1)N1CCCCCC1 | > 4 mM (inactive)
23 | CCn1nnc(NC(=O)c2cc3ccccc3o2)n1 | > 4 mM (inactive)
24 | COc1cc2c(cc1OC)C1(O)C(=O)c3ccc(O)c(C(=O)O)c3OC1CO2 (stereo unspecified) | > 4 mM (inactive)
25 | O=C(O)c1cc(=O)[nH]c2ccccc12 | > 4 mM (inactive)
26 | CC(C)(C)c1cc(N)n[nH]1 | > 4 mM (inactive)
27 | Cc1ncoc1C(=O)Nc1ccccc1C(N)=O | > 4 mM (inactive)
28 | COc1ccc(-c2coc3cc(OC)cc(OC)c3c2=O)cc1 | > 4 mM (inactive)
29 | CCNC(=O)CC[C@H](N)C(=O)O | > 4 mM (inactive)
30 | O=C(O)CN1CCN(C2CCCC2)CC1 | > 4 mM (inactive)
31 | CC(=O)CC1(O)C(=O)Nc2ccccc21 (stereo unspecified) | > 4 mM (inactive)
32 | CCc1cc2c(SCC(=O)O)ncnc2s1 | > 4 mM (inactive)
33 | COc1ccc(-c2ccc(SCC(N)=O)nn2)cc1 | > 4 mM (inactive)
34 | O=c1[nH]nc(Cc2ccccn2)c2ccccc12 | > 4 mM (inactive)
35 | Cn1c(=O)c2c(ncn2CCNC2=NCCC2)n(C)c1=O | > 4 mM (inactive)
36 | NCc1oc(-c2ccccc2)cc1C(=O)O | > 4 mM (inactive)
37 | CC(N)C(=O)c1ccco1 (stereo unspecified) | > 4 mM (inactive)
38 | Cc1cc(CN2C(=O)c3ccccc3C2=O)on1 | > 4 mM (inactive)
39 | C=C1C(=O)O[C@@H]2C3OC3(C)CC/C=C(\C)CC[C@@H]12 (stereo partly specified) | > 4 mM (inactive)
40 | COC(=O)Nc1c(C)n(C)n(-c2ccccc2)c1=O | > 4 mM (inactive)
41 | COc1ccccc1C(=O)NC1CCN(C)CC1 | > 4 mM (inactive)
42 | COc1cc(NC(=O)c2ccccc2)c(C)cc1N | > 4 mM (inactive)

Row | SMILES | Kd
43 | C=C[C@H]1CN2CC[C@H]1C[C@@H]2[C@H](O)c1ccnc2ccccc12 | > 4 mM (inactive)
44 | O=C(O)CCC1=C2c3ccccc3CCN2C(=O)CC1 | > 4 mM (inactive)
45 | CC(C)(C)CC(=O)NC1=NCCS1 | > 4 mM (inactive)
46 | Cc1nn(CC(=O)Nc2ccccn2)c(=O)c2ccccc12 | > 4 mM (inactive)
47 | O=C(O)c1cc(=O)c2cccc(O)c2[nH]1 | > 4 mM (inactive)
48 | COC(=O)c1c(C)cc(OC)cc1O | > 4 mM (inactive)
49 | CC1=CC2C(C(C)C)CCC(C)(O)C2CC1 (stereo unspecified) | > 4 mM (inactive)
50 | NC(C(=O)O)C(O)c1ccccc1 (stereo unspecified) | > 4 mM (inactive)
51 | O=C(O)c1ccnc2ccccc12 | > 4 mM (inactive)
52 | CC(=O)N1C(=S)NC(=O)/C1=C\c1cccnc1 | > 4 mM (inactive)
53 | NCCc1c[nH]c2ccccc12 | > 4 mM (inactive)
54 | CC[C@]12CCCN3CCc4c(n(c5ccccc45)[C@](O)(C(=O)OC)C1)[C@@H]32 | > 4 mM (inactive)
55 | CC(=O)Nc1ccc2c(c1)n(C)c(=O)n2C | > 4 mM (inactive)
56 | O=C(O)CCC(=O)Nc1nccs1 | > 4 mM (inactive)
57 | Cc1cc(N)no1 | > 4 mM (inactive)
58 | O=C(NC(=O)N1CCOCC1)c1ccccc1 | > 4 mM (inactive)
59 | Nc1cc(=O)[nH]c(SCC(=O)NCc2ccccc2)n1 | > 4 mM (inactive)
60 | CC(=O)NC(O)C(=O)c1cccs1 (stereo unspecified) | > 4 mM (inactive)
61 | Nc1nnc(SCc2ccc(F)cc2Cl)s1 | > 4 mM (inactive)
